This note sets out measurements from patent US8273762B2, “Hexahydro-pyrrolo-isoquinoline compounds” (Janssen Pharmaceutica NV, priority 2005, dated 2012).

Where two headings read alike, the source gives them in different places.

The target of test [1] is T1, Rat SERT (Rattus norvegicus, UniProt P31652).
T1 construct: A rat brain without cerebellum (Zivic Laboratories, Inc.—Pittsburgh, Pa.) was homogenized; tissue Zivic Laboratories, Inc; host or cells: rat brain without cerebellum, membranes
The test is described as follows: Rat brain SERT binding ([3H]-Citalopram displacement).

In test [2] the target is T2, cloned human H3 receptor, stably expressed in SK-N-MC cells (Homo sapiens, UniProt Q9Y5N1).
T2 construct: expressed in transfected cells
T2 sequence (Q9Y5N1 whole entry): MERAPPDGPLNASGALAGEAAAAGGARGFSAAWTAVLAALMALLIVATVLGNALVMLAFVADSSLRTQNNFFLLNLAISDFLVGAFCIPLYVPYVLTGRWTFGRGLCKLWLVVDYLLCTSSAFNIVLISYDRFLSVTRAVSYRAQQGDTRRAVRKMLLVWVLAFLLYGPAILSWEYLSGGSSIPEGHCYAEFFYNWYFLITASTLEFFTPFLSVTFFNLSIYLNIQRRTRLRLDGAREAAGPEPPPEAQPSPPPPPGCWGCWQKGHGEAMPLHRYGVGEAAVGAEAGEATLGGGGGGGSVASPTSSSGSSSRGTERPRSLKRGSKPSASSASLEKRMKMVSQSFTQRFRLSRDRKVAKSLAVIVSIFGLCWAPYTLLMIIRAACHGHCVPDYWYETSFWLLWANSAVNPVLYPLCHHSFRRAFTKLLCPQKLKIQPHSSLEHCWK
The test is described as follows: H3 receptor binding (N-[3H]-α-methylhistamine displacement). Particulars: SK-N-MC membranes, 0.8 nM N-[3H]-α-methylhistamine.

In test [3] the target is T3, human SERT (HEK293 membranes) (Homo sapiens, UniProt P31645).
T3 construct: purchased Perkin-Elmer; host or cells: HEK293 membranes
T3 sequence (P31645 whole entry): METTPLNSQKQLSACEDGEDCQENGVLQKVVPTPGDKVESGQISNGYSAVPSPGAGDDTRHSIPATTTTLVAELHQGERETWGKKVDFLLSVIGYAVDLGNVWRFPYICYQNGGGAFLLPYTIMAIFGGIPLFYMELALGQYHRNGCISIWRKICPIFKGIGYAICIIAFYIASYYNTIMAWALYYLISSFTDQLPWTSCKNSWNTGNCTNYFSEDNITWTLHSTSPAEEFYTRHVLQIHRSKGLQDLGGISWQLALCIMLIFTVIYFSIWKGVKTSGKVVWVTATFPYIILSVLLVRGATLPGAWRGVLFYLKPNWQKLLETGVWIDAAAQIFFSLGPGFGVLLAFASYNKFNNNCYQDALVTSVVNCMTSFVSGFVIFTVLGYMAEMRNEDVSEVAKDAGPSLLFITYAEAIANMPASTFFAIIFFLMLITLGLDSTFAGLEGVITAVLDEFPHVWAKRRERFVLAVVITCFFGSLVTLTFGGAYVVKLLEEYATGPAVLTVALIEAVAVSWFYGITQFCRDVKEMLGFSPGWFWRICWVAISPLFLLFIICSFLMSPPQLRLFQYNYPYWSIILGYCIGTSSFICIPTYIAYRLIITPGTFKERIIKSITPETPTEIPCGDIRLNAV
The test is described as follows: Human SERT binding (3H-citalopram displacement).
Procedure: Nonspecific binding was determined in the presence of 10 μM fluoxetine for the SERT. The membranes were washed and the radioactivity was counted as above.

For test [4], the target named is T4, human H3 receptor (SK-N-MC cells) (Homo sapiens, UniProt Q9Y5N1).
T4 construct: expressed in transfected cells; host or cells: SK-N-MC sublines with CRE-beta-galactosidase reporter
T4 sequence (Q9Y5N1 whole entry): as the sequence (Q9Y5N1 whole entry) above
The test is described as follows: Cyclic AMP accumulation (β-galactosidase reporter, Schild analysis vs histamine). The test is classed as cell-based.
Procedure: The reporter gene (β-galactosidase) is under the control of multiple cyclic AMP responsive elements. In 96-well plates, histamine was added directly to the cell media followed 5 min later by an addition of forskolin (5 μM final concentration). When appropriate, antagonists were added 10 min prior to agonist addition. After a 6-h incubation at 37° C., the media was aspirated and the cells washed with 200 μL of phosphate-buffered saline followed by a second aspiration. Cells were lysed with 25 μL 0.1× assay buffer (10 mM Na-phosphate, pH 8, 0.2 mM MgSO4, 0.01 mM MnCl2) and incubated at rt for 10 min. Cells were then incubated for 10 min with 100 μL of 1× assay buffer containing 0.5% Triton and 40 mM β-mercaptoethanol. Color was developed using 25 μL of 1 mg/mL substrate solution (chlorophenolred β-D galactopyranoside; Roche Molecular Biochemicals, Indianapolis, Ind.).

The subject of test [5] is serotonin and dopamine levels in the cortex. As to the kind of experiment: Microdialysis of serotonin and dopamine in cortex. As to conditions: cortex of freely moving rats, 1 mg/kg subcutaneous, FIG. 1. The test is classed as in vivo. From the text: Microdialysis is used to measure the concentration of small biological molecules in the extracellular fluid of the brain (Parent, M. et al. Methods 2001, 23, 11-20). A small probe, containing a fine microdialysis membrane at its tip, is introduced into the brain of an animal. A buffered solution is infused through the catheter. Small molecules, such as monoamine neurotransmitters, diffuse through the pores in the microdialysis membrane and are captured in the solution. The samples are then analyzed by analytical techniques to quantitate the amount of neurotransmitter in the brain extracellular fluid. This technique has been used extensively to measure the effects of SERT inhibitors on levels of extracellular serotonin.
Microdialysis was used to measure the levels of serotonin and dopamine in the brain of freely moving rats after subcutaneous injection of Example 8A. […] Results are represented as the average ±s.d. of n=2-4 rats.

Test [6] concerns H3 receptor. As to conditions: 60 min, average ± s.e.m.
Source text: In this model, animals were introduced into a cage containing a fully-automated water drinking monitoring system. […] Results are shown as averages ±s.e.m. of n=8-13 animals.
For test [7], the system named is synaptic reuptake of 5-HT. The test is described as follows: 5-HTP potentiation test (head twitches). The test is classed as in vivo. Particulars: mice, 5 min interval, carbidopa 10 mg/kg + 5-HTP 40 mg/kg, average ± s.e.m.
The mark [8] stands for this setting: rat brain membranes, 0.6 nM [3H]-Citalopram, read-out: Rat SERT Ki.

T1 sequence (P31652 whole entry): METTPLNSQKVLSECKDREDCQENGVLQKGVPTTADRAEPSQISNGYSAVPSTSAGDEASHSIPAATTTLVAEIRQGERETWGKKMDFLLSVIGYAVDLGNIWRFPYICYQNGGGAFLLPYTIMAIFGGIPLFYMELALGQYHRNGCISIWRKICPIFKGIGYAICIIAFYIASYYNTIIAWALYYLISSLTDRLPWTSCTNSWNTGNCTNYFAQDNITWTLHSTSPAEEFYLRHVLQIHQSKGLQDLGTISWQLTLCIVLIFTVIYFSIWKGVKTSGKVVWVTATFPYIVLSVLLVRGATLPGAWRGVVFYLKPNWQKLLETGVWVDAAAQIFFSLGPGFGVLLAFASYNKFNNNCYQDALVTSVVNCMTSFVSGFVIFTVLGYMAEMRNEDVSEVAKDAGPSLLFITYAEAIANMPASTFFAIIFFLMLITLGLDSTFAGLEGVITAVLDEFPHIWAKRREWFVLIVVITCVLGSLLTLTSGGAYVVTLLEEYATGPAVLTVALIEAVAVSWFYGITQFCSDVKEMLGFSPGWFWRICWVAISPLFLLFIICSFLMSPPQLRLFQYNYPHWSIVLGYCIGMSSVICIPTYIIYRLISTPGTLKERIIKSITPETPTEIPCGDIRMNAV

Turning to `c1ccc([C@H]2CN3CCC[C@H]3c3cc(OCCCN4CCCCC4)ccc32)cc1` (relative stereo) [Example 1A, Cis-6-Phenyl-9-(3-piperidin-1-yl-propoxy)-1,2,3,5,6,10b-hexahydro-pyrrolo[2,1a]isoquinoline], the inhibition constant Ki in test [1] (setting [8]) worked out at 2 nM; in test [2] it was 0.9 nM; in test [3] it was 4 nM. For the same molecule, in test [4] (read-out: H3 pA2 (converted)), the Kb is 0.2 nM.

Regarding `COc1ccc([C@H]2CN3CCC[C@H]3c3cc(OCCCN4CCCCC4)ccc32)cc1` (relative stereo) [Example 8A, Cis-6-(4-Methoxy-phenyl)-9-(3-piperidin-1-yl-propoxy)-1,2,3,5,6,10b-hexahydro-pyrrolo[2,1-a]isoquinoline], the “dopamine (DA) levels by microdialysis” value in test [5] is on record as “slow, persistent increase”. The “serotonin (5-HT) levels by microdialysis” value in test [5] was “slow, persistent increase”. The “Water Consumed” value in test [6] (Example 8A (1 mg/kg) i.p. + Imetit (1 mg/kg) after 24 h) is given as 1.99 ± 0.68 mL; in test [6] (Example 8A (3 mg/kg) i.p. + Imetit (1 mg/kg) after 24 h), 1.65 ± 0.51 mL; in test [6] (Example 8A (10 mg/kg) i.p. + Imetit (1 mg/kg) after 24 h, p = 0.022 compared to imetit-treated animals), “*0.25 ± 0.15 mL”. The head twitch frequency is on record as 6.0 ± 1.2 (3) in test [7] (3 mg/kg, Group 1 (1 h)); 24.0 ± 2.1 (4) in test [7] (3 mg/kg, Group 2 (24 h)); 2.0 ± 0.6 (3) in test [7] (10 mg/kg, Group 1 (1 h)); 41.3 ± 5.2 (3) in test [7] (10 mg/kg, Group 2 (24 h)).

For the molecule `Oc1ccc([C@H]2CN3CCC[C@H]3c3cc(OCCCN4CCCCC4)ccc32)cc1` (relative stereo) [Example 9A], the Ki in test [1] (setting [8]) amounted to 9 nM; in test [2], 2 nM; in test [3] it was 58 nM. Further, the Kb in test [4] (read-out: H3 pA2 (converted)) was 0.316 nM.

With `COc1cccc([C@H]2CN3CCC[C@H]3c3cc(OCCCN4CCCCC4)ccc32)c1` (relative stereo) [Example 10A, Cis-6-(3-Methoxy-phenyl)-9-(3-piperidin-1-yl-propoxy)-1,2,3,5,6,10b-hexahydro-pyrrolo[2,1-a]isoquinoline], the Ki in test [1] (setting [8]) is 5 nM; in test [2] it was 2 nM; in test [3], 2 nM. Also, the Kb in test [4] (read-out: H3 pA2 (converted)) is 0.158 nM.

As to `Clc1cccc([C@@H]2CN3CCC[C@H]3c3cc(OCCCN4CCCCC4)ccc32)c1` (relative stereo) [Example 11A, Cis-6-(3-Chloro-phenyl)-9-(3-piperidin-1-yl-propoxy)-1,2,3,5,6,10b-hexahydro-pyrrolo[2,1-a]isoquinoline], the Ki was determined as 4 nM in test [1] (setting [8]), 1 nM in test [2] and 0.6 nM in test [3]. Moreover, the Kb in test [4] (read-out: H3 pA2 (converted)) was 0.316 nM.

`FC(F)(F)Oc1ccc([C@H]2CN3CCC[C@H]3c3cc(OCCCN4CCCCC4)ccc32)cc1` (relative stereo) [Example 17]: the Ki in test [1] (setting [8]) is 11 nM; in test [2], 4 nM; in test [3], 7 nM. In test [4] (read-out: H3 pA2 (converted)), the Kb was 6.31 nM.

Take `COc1ccc([C@H]2CN3CCC[C@H]3c3cc(OC4CCN(C(C)C)CC4)ccc32)cc1` (relative stereo) [Example 28]: the inhibitory constant (Ki) in test [1] (setting [8]) was determined as 4 nM; in test [2], 0.4 nM; in test [3], 5 nM.

As to `CN(C)c1ccc([C@H]2CN3CCC[C@H]3c3cc(OCCCN4CCCCC4)ccc32)cc1` (relative stereo) [Example 30], the Ki in test [1] (setting [8]) was found to be 3 nM; in test [2], 2 nM; in test [3] it was 2 nM.

Turning to `C[Si](C)(C)C#Cc1ccc([C@H]2CN3CCC[C@H]3c3cc(OCCCN4CCCCC4)ccc32)cc1` (relative stereo) [Example 36], the results for the inhibition constant Ki in test [1] and in test [2] were 15 nM and 4 nM, respectively. Further, the Kb in test [4] was 10 nM.

For `N#Cc1ccc([C@@H]2CN3CCC[C@H]3c3cc(OCCCN4CCCCC4)ccc32)cc1` (relative stereo) [Example 41A, Cis-4-[9-(3-Piperidin-1-yl-propoxy)-1,2,3,5,6,10b-hexahydro-pyrrolo[2,1-a]isoquinolin-6-yl]-benzonitrile], the results for the inhibition constant Ki in test [1] (setting [8]), in test [2] and in test [3] were 25 nM, 1 nM and 59 nM, respectively. Further, the Kb in test [4] (read-out: H3 pA2 (converted)) was 0.794 nM.

With `N#Cc1ccc([C@H]2CN3CCC[C@H]3c3cc(OCCCN4CCCCC4)ccc32)cc1` (relative stereo) [Example 41B, Trans-4-[9-(3-Piperidin-1-yl-propoxy)-1,2,3,5,6,10b-hexahydro-pyrrolo[2,1-a]isoquinolin-6-yl]-benzonitrile], the Ki came to 6 nM in test [1] (setting [8]) and 1 nM in test [2]. The Kb in test [4] (read-out: H3 pA2 (converted)) was 0.794 nM.

For the molecule `FC(F)(F)c1cccc([C@H]2CN3CCC[C@H]3c3cc(OCCCN4CCCCC4)ccc32)c1` (relative stereo) [Example 67], the Ki came to 22 nM in test [1] (setting [8]), 2 nM in test [2] and 9 nM in test [3]. Further, the Kb in test [4] (read-out: H3 pA2 (converted)) was 0.501 nM.

Consider `COc1ccc([C@H]2CN3CCC[C@H]3c3cc(OCCCN4CCOC[C@@H]4C)ccc32)cc1` [Example 46, Cis-6-(4-Methoxy-phenyl)-9-[3-(3S-methyl-morpholin-4-yl)-propoxy]-1,2,3,5,6,10b-hexahydro-pyrrolo[2,1-a]isoquinoline], for which the Ki was determined as 14 nM in test [1] (setting [8]), 4 nM in test [2] and 9 nM in test [3].

Consider `COc1ccc([C@@H]2CN3CCC[C@@H]3c3cc(OCCCN4CCOCC4)ccc32)cc1` [Example 92, (1R,6S)-6-(4-Methoxy-phenyl)-9-(3-morpholin-4-yl-propoxy)-1,2,3,5,6,10b-hexahydro-pyrrolo[2,1-a]isoquinoline], for which the Ki worked out at 2.2 nM in test [1] (setting [8]), 16 nM in test [2] and 4 nM in test [3]. Besides, the Kb in test [4] (read-out: H3 pA2 (converted)) is 15.8 nM.

For `COc1ccc([C@H]2CN3CCC[C@@H]3c3cc(OCCCN4CCOCC4)ccc32)cc1` [Example 94, (1R,6R)-6-(4-Methoxy-phenyl)-9-(3-morpholin-4-yl-propoxy)-1,2,3,5,6,10b-hexahydro-pyrrolo[2,1-a]isoquinoline], the results for the Ki in test [1] (setting [8]), in test [2] and in test [3] were 53 nM, 4 nM and 111 nM, respectively.

Take `COc1ccc([C@@H]2CN3CCC[C@H]3c3cc(OCCCN4CCOCC4)ccc32)cc1` [Example 95, (1S,6S)-6-(4-Methoxy-phenyl)-9-(3-morpholin-4-yl-propoxy)-1,2,3,5,6,10b-hexahydro-pyrrolo[2,1-a]isoquinoline]: the Ki turned out to be 11 nM in test [1] (setting [8]), 6 nM in test [2] and 13 nM in test [3].

As a reminder, the Ki is a measure of affinity in units of concentration, obtained from inhibition or displacement.
